Measurements published in paper PMC11637191, “The pH-dependence of efflux ratios determined with bidirectional transport assays across cellular monolayers” (International Journal of Pharmaceutics: X, 2024).
Like-named read-outs stand apart in the source and are kept apart here.

Columns and labels:
[1] = system: MDCK-MDR1 cells; conditions: pH 7.4 iso-method, cited from earlier work; for Papp, inhibitor: with inhibitor; for Papp, B⟶A: without inhibitor
[2] = system: MDCK-MDR1 cells; test: Comparison of Papp,B-A with and without inhibitor in MDCK-MDR1 cells (own and literature data); conditions: calculated from literature Papp,B⟶A and Papp with inhibitor; pH 7.4 iso-method
[3] = ref Troutman and Thakker (2003)

| Factor difference [2] | SMILES | Papp, inhibitor ([1]; ref Doan et al. (2002)) [×10⁻⁶ cm/s] | Papp, B⟶A ([1]; ref Doan et al. (2002)) [×10⁻⁶ cm/s] | Papp, inhibitor [1, 3] [×10⁻⁶ cm/s] | Papp, B⟶A [1, 3] [×10⁻⁶ cm/s] | further results |
| --- | --- | --- | --- | --- | --- | --- |
| 4 | Cc1c(O)cccc1C(=O)N[C@@H](CSc1ccccc1)[C@H](O)CN1C[C@H]2CCCC[C@H]2C[C@H]1C(=O)NC(C)(C)C [Nelfinavir] | 19.7 | 78.6 |  |  |  |
| 1 | CN(C)CCC(c1ccc(Cl)cc1)c1ccccn1 (centres unmarked) [Chlorpheniramine] |  |  |  |  | Papp, inhibitor ([1]; ref Obradovic et al. (2007)): 66.2 ×10⁻⁶ cm/s; Papp, B⟶A ([1]; ref Obradovic et al. (2007)): 93.7 ×10⁻⁶ cm/s |
| 2 | Nc1ccn([C@@H]2CS[C@H](CO)O2)c(=O)n1 [Lamiduvine] |  |  |  |  | Papp, inhibitor ([1]; ref De Souza et al. (2009)): 0.11 ×10⁻⁶ cm/s; Papp, B⟶A ([1]; ref De Souza et al. (2009)): 0.18 ×10⁻⁶ cm/s |
| 6 | CC(C)c1nc(CN(C)C(=O)N[C@H](C(=O)N[C@@H](Cc2ccccc2)C[C@H](O)[C@H](Cc2ccccc2)NC(=O)OCc2cncs2)C(C)C)cs1 [Ritonavir] |  |  |  | 23.6 |  |
| 3 | C[C@H]1C[C@@H]2[C@H]([C@@H](O)C[C@@]3(C)[C@H]2CC[C@]3(O)C(=O)CO)[C@@]2(C)C=CC(=O)C=C12 [Methylprednisolone] |  |  | 28.48 | 94.3 |  |
| 3 | CNC(=C[N+](=O)[O-])NCCSCc1ccc(CN(C)C)o1 [Ranitidine] |  |  | 1.25 | 3.29 |  |

Further lines, the compound ahead of its results:

| SMILES | Factor difference [2] | Papp, inhibitor ([1]; ref Doan et al. (2002)) [×10⁻⁶ cm/s] | Papp, B⟶A ([1]; ref Doan et al. (2002)) [×10⁻⁶ cm/s] | Papp, inhibitor [1, 3] [×10⁻⁶ cm/s] | Papp, B⟶A [1, 3] [×10⁻⁶ cm/s] | further results |
| --- | --- | --- | --- | --- | --- | --- |
| COC(=O)c1ccccc1-c1c2ccc(=N)cc-2oc2cc(N)ccc12 [Rhodamine 123] |  |  |  | 1.16 | 15.3 | Papp, inhibitor ([1]; ref Tang et al. (2004)): 1.173 ×10⁻⁶ cm/s; Papp, inhibitor ([1]; ref Wang et al. (2005)): 2.2 ×10⁻⁶ cm/s; Papp, B⟶A ([1]; ref Tang et al. (2004)): 10.17 ×10⁻⁶ cm/s; Papp, B⟶A ([1]; ref Wang et al. (2005)): 7.63 ×10⁻⁶ cm/s |
| CN(C)C(=O)Oc1cccc([N+](C)(C)C)c1 [Neostigmine] | 2 | 0.852 | 1.54 |  |  |  |
| CC(C)(C)c1ccc(C(O)CCCN2CCC(C(O)(c3ccccc3)c3ccccc3)CC2)cc1 (centres unmarked) [Terfenadine] |  | 28.5 | 42.1 |  |  | Papp, inhibitor ([1]; ref Obradovic et al. (2007)): 2.39 ×10⁻⁶ cm/s; Papp, B⟶A ([1]; ref Obradovic et al. (2007)): 11.43 ×10⁻⁶ cm/s |
| CC(C)(C)NC(=O)[C@@H]1C[C@@H]2CCCC[C@@H]2CN1C[C@@H](O)[C@H](Cc1ccccc1)NC(=O)[C@H](CC(N)=O)NC(=O)c1ccc2ccccc2n1 [Saquinavir] |  | 22 | 39.5 | 12.6 | 108 |  |
| Cc1cn([C@H]2C[C@H](N=[N+]=[N-])[C@@H](CO)O2)c(=O)[nH]c1=O [Zidovudine] | 3 |  |  |  |  | Papp, inhibitor ([1]; ref De Souza et al. (2009)): 3.26 ×10⁻⁶ cm/s; Papp, B⟶A ([1]; ref De Souza et al. (2009)): 9.98 ×10⁻⁶ cm/s |
| CN(C)C(=O)C(CCN1CCC(O)(c2ccc(Cl)cc2)CC1)(c1ccccc1)c1ccccc1 [Loperamide] |  | 45.6 | 77.3 |  |  | Papp, inhibitor ([1]; ref Wang et al. (2005)): 12 ×10⁻⁶ cm/s; Papp, B⟶A ([1]; ref Wang et al. (2005)): 42.64 ×10⁻⁶ cm/s |
